Experiment [1] addresses T1, Atrial natriuretic peptide receptor 1 (Homo sapiens, UniProt P16066).
T1 sequence (P16066 whole entry): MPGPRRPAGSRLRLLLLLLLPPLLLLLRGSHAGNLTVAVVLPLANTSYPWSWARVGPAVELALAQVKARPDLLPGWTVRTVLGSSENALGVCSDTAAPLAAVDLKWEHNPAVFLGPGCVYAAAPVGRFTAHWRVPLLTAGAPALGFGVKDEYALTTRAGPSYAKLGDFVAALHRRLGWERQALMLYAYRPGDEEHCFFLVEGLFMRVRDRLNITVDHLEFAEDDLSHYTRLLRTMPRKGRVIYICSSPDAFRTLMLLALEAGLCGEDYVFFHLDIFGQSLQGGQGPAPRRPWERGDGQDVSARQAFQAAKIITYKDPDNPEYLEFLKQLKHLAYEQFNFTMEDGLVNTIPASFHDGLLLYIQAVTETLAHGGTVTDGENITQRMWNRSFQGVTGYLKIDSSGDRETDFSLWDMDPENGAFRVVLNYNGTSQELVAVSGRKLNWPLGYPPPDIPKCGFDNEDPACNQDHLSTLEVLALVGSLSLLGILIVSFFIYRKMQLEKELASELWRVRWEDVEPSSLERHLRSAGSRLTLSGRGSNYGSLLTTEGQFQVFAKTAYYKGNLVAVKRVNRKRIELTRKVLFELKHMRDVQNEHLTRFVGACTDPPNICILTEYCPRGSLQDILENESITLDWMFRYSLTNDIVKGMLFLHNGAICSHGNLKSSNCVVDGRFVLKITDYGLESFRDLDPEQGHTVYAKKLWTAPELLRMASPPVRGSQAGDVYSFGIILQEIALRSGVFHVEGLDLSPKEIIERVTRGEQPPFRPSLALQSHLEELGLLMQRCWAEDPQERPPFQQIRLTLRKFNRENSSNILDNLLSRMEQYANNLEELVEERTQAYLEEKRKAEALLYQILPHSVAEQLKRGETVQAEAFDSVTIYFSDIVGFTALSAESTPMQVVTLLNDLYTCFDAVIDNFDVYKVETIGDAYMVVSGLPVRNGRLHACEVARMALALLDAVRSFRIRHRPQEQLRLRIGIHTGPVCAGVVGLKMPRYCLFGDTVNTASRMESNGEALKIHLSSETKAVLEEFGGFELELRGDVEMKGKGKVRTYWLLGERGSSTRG
Put plainly: Agonist activity at human NPR-A expressed in CHO cells assessed as increase in cGMP accumulation after 30 mins by radioimmunoassay. Type of experiment: cell-based.

In experiment [2] the test system is Rattus norvegicus. Put plainly: Diuretic activity in iv dosed Crl:CD(SD) rat assessed as increase in urine volume administered as bolus dose measured up to 60 mins. Type of experiment: functional, organism-based.
Experiment [3] has as its system Rattus norvegicus. Nature of the experiment: In vivo agonist activity at NPR-A in Crl:CD(SD) rat assessed as increase in cGMP accumulation in lung at 30 ug/kg/min, iv. Type of experiment: functional, organism-based.
For experiment [4], the target named is T2, Atrial natriuretic peptide receptor 1 (Rattus norvegicus, UniProt P18910).
T2 sequence (P18910 whole entry): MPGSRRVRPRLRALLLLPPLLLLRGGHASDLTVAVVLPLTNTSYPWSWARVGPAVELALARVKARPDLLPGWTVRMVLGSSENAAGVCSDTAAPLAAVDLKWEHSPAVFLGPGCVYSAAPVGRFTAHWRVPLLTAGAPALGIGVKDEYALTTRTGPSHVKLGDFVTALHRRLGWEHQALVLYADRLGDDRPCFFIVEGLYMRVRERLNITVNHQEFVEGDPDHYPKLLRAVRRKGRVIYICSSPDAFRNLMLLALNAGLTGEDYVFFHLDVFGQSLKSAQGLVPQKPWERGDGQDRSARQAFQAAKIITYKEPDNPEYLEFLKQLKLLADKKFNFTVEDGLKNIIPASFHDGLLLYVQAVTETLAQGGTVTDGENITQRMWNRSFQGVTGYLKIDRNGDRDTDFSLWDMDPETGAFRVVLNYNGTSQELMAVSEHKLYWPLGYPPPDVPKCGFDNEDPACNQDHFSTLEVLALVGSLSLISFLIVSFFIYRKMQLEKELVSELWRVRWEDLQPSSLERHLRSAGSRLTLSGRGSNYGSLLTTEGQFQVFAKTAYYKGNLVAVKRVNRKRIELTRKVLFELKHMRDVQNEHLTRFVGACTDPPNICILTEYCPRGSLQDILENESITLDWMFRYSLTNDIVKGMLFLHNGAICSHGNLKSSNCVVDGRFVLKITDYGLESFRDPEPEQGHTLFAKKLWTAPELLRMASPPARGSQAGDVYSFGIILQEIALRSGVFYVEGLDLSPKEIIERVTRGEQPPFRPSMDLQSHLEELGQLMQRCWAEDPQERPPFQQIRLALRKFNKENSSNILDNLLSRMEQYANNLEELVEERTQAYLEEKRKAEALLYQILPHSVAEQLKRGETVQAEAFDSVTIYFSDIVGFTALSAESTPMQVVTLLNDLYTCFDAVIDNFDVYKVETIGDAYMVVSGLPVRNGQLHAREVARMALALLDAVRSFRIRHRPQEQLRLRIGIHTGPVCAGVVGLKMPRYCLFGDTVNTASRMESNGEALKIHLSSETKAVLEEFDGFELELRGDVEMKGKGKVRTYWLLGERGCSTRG
Put plainly: Agonist activity at rat NPR-A expressed in CHO cells assessed as increase in cGMP accumulation after 15 mins by fluorescent assay. The format is cell-based.

In experiment [5] the test system is Rattus norvegicus. Put plainly: In vivo agonist activity at NPR-A in iv dosed Crl:CD(SD) rat assessed as increase in cGMP accumulation in kidney administered as infusion over 30 mins by radioimmunoassay. The format is functional, organism-based.
Experiment [6] concerns Rattus norvegicus. Put plainly: Diuretic activity in Crl:CD(SD) rat assessed as increase in urine volume at 10 ug/kg, iv administered as bolus dose measured up to 60 mins. The format is functional, organism-based.
Experiment [7] has as its system Rattus norvegicus. Nature of the experiment: In vivo agonist activity at NPR-A in Crl:CD(SD) rat assessed as increase in cGMP accumulation in kidney at 1 ug/kg/min, iv administered as infusion over 30 mins by radioimmunoassay. The format is functional, organism-based.

The source made the active and inactive calls. The calls are words filed in the database; no cut-off is given here.

On to `CC(C)CC1C(=O)N=C(N)N1c1nc(NC(=N)N)nc(Nc2ccc(Nc3nc(NC(=N)N)nc(N4C(N)=NC(=O)C4CC(C)C)n3)cc2)n1` (configuration not stated), for which the EC50 – broadly, the concentration that produces a half-maximal response – in experiment [1] was 5.8 nM.
For `CCCCC1C(=O)N=C(N)N1c1nc(NC(=N)N)nc(Nc2ccc(Nc3nc(NC(=N)N)nc(N4C(N)=NC(=O)C4CCCC)n3)cc2)n1` (configuration not stated), the Activity entry in experiment [2] and in experiment [5] was “Dose-dependent effect” in each case. In addition, in experiment [3], the outcome was Active. In addition, the EC50 in experiment [4] worked out at 23 nM; in experiment [1], 2 nM.
For the compound `CC(C)CC1C(=O)N=C(N)N1c1nc(NC(=N)N)nc(NC2CCC(Nc3nc(NC(=N)N)nc(N4C(N)=NC(=O)C4CC(C)C)n3)CC2)n1` (configuration not stated), the Activity entry in experiment [2] and in experiment [5] was “Dose-dependent effect” throughout. Besides, the result in experiment [3] was Active. Further, the figures for the EC50 in experiment [4] and in experiment [1] were 76 nM and 8.1 nM, respectively.
As for `CC[C@H](C)[C@@H]1NC(=O)[C@H](CCCNC(=N)N)NC(=O)[C@H](CC(=O)O)NC(=O)[C@H](CCSC)NC(=O)[C@H](CCCNC(=N)N)NC(=O)CNC(=O)CNC(=O)[C@H](Cc2ccccc2)NC(=O)[C@@H](NC(=O)[C@H](CO)NC(=O)[C@H](CO)NC(=O)[C@H](CCCNC(=N)N)NC(=O)[C@H](CCCNC(=N)N)NC(=O)[C@H](CC(C)C)NC(=O)[C@@H](N)CO)CSSC[C@@H](C(=O)N[C@@H](CC(N)=O)C(=O)N[C@@H](CO)C(=O)N[C@@H](Cc2ccccc2)C(=O)N[C@@H](CCCNC(=N)N)C(=O)N[C@@H](Cc2ccc(O)cc2)C(=O)O)NC(=O)CNC(=O)[C@H](CC(C)C)NC(=O)CNC(=O)[C@H](CO)NC(=O)[C@H](CCC(N)=O)NC(=O)[C@H](C)NC(=O)CNC1=O`, the result in experiment [6] and in experiment [7] was Active.
`C/N=C(\N(C)C)N(C)c1nc(Nc2ccccc2)nc(N2C(N)=NC(=O)C2CC(C)C)n1` (configuration not stated): the EC50 in experiment [1] turned out to be 64000 nM.
Same read-out and setting: with `CC1C(=O)N=C(N)N1c1nc(NC(=N)N)nc(Nc2ccc(Nc3nc(NC(=N)N)nc(N4C(N)=NC(=O)C4C)n3)cc2)n1` (configuration not stated) the figure was over 10000 nM; with `CC(C)CC1C(=O)N=C(N)N1c1nc(NC(=N)N)nc(Nc2ccc(Nc3nc(NC(=N)N)nc(N4C(N)=NC(=O)C4C)n3)cc2)n1` (configuration not stated), 19 nM.
Same read-out and setting: with `CC(C)CC1C(=O)N=C(N)N1c1nc(NC(=N)N)nc(Nc2ccccc2)n1` (configuration not stated) the figure was 4000 nM.

The values are drawn from ChEMBL document CHEMBL3992545, “Discovery and dimeric approach of novel Natriuretic Peptide Receptor A (NPR-A) agonists” (Bioorg Med Chem, 2017).
